According to patent US20170240522A1, “BENZOTHIOPHENE, BENZYLOXYBENZYLIDENE AND INDOLINE DERIVATIVES USEFUL FOR THE TREATMENT OF TUBERCULOSIS” (priority 2014, published 2017):

Columns and labels:
[1] = tested on: Mtb-infected THP-1 macrophages; format: cell-based, human
[2] = tested on: Mtb-Erdman; test: Growth of Mtb in 7H9 broth; format: cell-based, Mycobacterium tuberculosis; conditions: 25 μM
[3] = tested on: ATP-levels of Mtb; test: Quantification of intracellular ATP levels; format: cell-based, Mycobacterium tuberculosis; conditions: 10 μM, 24 hours
Experimental: (§1) Bacteria were grown for 24 hours in the presence of test compounds. The BacTiter-Glo microbial cell viability reagent (Promega) was used for the quantification of ATP according to the recommendations of the manufacturer. For EtBr uptake assays, bacteria were washed with PBS containing 0.05% Tween 80, OD600 was adjusted to 0.4 and 100 μl were pipetted into black 96 well plates. EtBr was added (4 μM final concentration) and fluorescence was read every 2 min. at 545/600 nm. Unpaired Student's T-tests were used for statistical analyses.

[4] = tested on: mycobacterial outer membrane permeability; test: Ethidium bromide (EtBr) uptake assay; format: cell-based, Mycobacterium tuberculosis; conditions: 10 μM
Experimental: as §1
To investigate whether BBH7 alters mycobacterial outer membrane permeability, which might explain the transcriptomic pattern associated with metal-ion toxicity, the Applicant performed ethidium bromide (EtBr) uptake assays after treatment with the compounds of interest. These assays identify altered outer membrane permeability by an increase of fluorescence after binding of EtBr to bacterial nucleic acids. […] This was not observed with BTP15.

[5] = tested on: MRC-5 lung fibroblasts; test: Fibroblast survival assay (FSA); format: cell-based; conditions: Homo sapiens, MRC5; read-out: IC50 of protection of fibroblasts
[6] = tested on: several other mycobacteria and non-mycobacterial pathogens; test: REMA assay of non-Mtb strains; format: cell-based
[7] = tested on: EsxA; format: cell-based, Mycobacterium tuberculosis
[8] = tested on: Mtb transcriptome; test: RNA-seq and qRT-PCR of compound-treated Mtb; format: cell-based, Mycobacterium tuberculosis; conditions: RNA-seq, 5 μM
Experimental: For the transcriptomic studies, bacteria were grown under the same conditions as for protein secretion assays. Drug exposure time was 8 hours with 5 μM of compound for RNA-seq experiments and confirmatory qRT-PCR. RNA was extracted with Trizol (Invitrogen) and treated with DNase I (Roche) prior to library preparation or generation of the cDNA template. cDNA was synthesized using the RevertAid First Strand cDNA Synthesis Kit (Fermentas) using random hexamer primer. cDNA corresponding to 10 ng of input RNA was used in each RT-PCR reaction supplemented with specific primer pairs (200 nM each) listed in Table S4 and SYBR-Green master mix (Applied Biosystems). Quantitative RT-PCR reactions were performed with the 7900HT Fast Real-Time PCR System (Applied Biosystems) with the following parameters: 50° C. for 2 min, 95° C. for 10 min, followed by 40 cycles of 95° C. for 15 s and 60° C. for 60 s. Melt curve analysis was used to confirm specific amplification for each primer pair. Unpaired Student's T-tests were used for statistical analyses.
For the RNA-seq library preparation 100 ng of total RNA were used in the TruSeq Stranded mRNA LT kit, according to the instructions provided by the manufacturer (Illumina). A small aliquot was analyzed on Qubit and Fragment Analyzer prior to sequencing on Illumina HiSeq using the TruSeq SR Cluster Generation Kit v3 and TruSeq SBS Kit v3. Data were processed with the Illumina Pipeline Software v1.82. RNA-seq data were deposited in the Gene Expression Omnibus (GEO) server at the National Center for Biotechnology Information (NCBI).
• All analyses in this study were carried out using the M. tuberculosis H37Rv annotation from the TubercuList database (http://tuberculist.epfl.ch/) (Lew et al., 2011). There are 4019 protein coding sequences (CDS) currently annotated in the genome, 73 genes encoding for stable RNAs, small RNAs and tRNAs. In order to quantify protein occupancy and transcription across the entire genome, 3080 intergenic regions (regions flanked by two non-overlapping CDS) were included, resulting in a total of 7172 features. • The single-ended sequence reads generated from RNA-seq experiments were aligned to the M. tuberculosis H37Rv genome (NCBI accession NC_000962.2) using Bowtie2 with default parameters (Langmead and Salzberg, 2012). Read counts for all annotated features were obtained with the htseq-count program (http://www.huber.embl.de/users/anders/HTSeq/doc/count.html). Regions where genes overlapped were excluded from counting. Reads spanning more than one feature were counted for each feature. Since the RNA library was strand-specific, the orientation of sequence reads had to correspond to the orientation of annotated features to be counted. Analysis of differential gene expression was carried out using the DESeq package (Anders and Huber, 2010).

[9] = tested on: Mtb expressing GFP in infected fibroblasts; format: cell-based, Mycobacterium tuberculosis; conditions: compound concentration 5 μM (FIG. 2D)
[10] = tested on: GroEL; conditions: BBH7 and BTP15 treatment
Experimental: In brief, 30 ml of bacteria grown to mid-logarithmic phase (OD600 of 0.6 to 0.7) in Sauton's medium supplemented with 0.05% Tween 80 were centrifuged and resuspended in Sauton's medium without Tween. Compounds were added at concentrations as indicated and cells were grown further at 37° C. with shaking for 4 days. Cultures were harvested by centrifugation to obtain culture filtrates and cell pellets. Culture filtrates were concentrated 100-fold in 5-kDa cutoff Vivaspin columns (Sartorius). Cell lysates were prepared by bead beating bacterial pellets in lysis buffer with 100-μm glass beads.
For immunoblot analysis, 5 μg of protein were resolved by SDS-gel electrophoresis and transferred to nitrocellulose membranes. Membranes were blocked with TBS-buffer (3% milk powder) and incubated overnight with the desired primary antibody diluted in TNT-buffer supplemented with 1% BSA fraction V. Membranes were washed with TNT, incubated with the appropriate secondary antibody in TNT-BSA, washed again with TNT, and developed. GroEL2 was used as a lysis control for culture filtrates and as a loading control for cell lysates.

[11] = tested on: Ag85 complex proteins; format: cell-based, Mycobacterium tuberculosis; conditions: 5 μM
[12] = tested on: ESX-1; test: ESX-1 inhibitory activity of inhibitors of mycobacterium virulence (Table VII); format: cell-based, Mycobacterium tuberculosis
[13] = tested on: Mtb-GFP inside activated THP-1 cells; format: cell-based, Mycobacterium tuberculosis; conditions: activated THP-1, 10 μM

Compound: CSC(=S)N/N=C(\C)c1ccc(OCc2ccc(F)cc2F)cc1 [BBH7, N′-{1-[4-(2,4-Difluoro-benzyloxy)-phenyl]ethylidene}-hydrazinecarbodithioic acid methyl ester]
- rate of bacteria in acidic compartments (Lysotracker Red co-localization) [1]: significantly higher rate
- growth inhibition of Mtb [2]: no growth inhibition
- mycobacterial ATP levels [3]: not found to be reduced
- EtBr accumulation and fluorescence [4]: increases EtBr accumulation and fluorescence
- IC50 [5]: 2400 nM
- MIC99 [6]: > 100 µM
- EsxA secretion [7]: dose-dependent secretion inhibition
- upregulated genes (number) [8]: 121 genes
- upregulation of the metallothionein mymT [8]: 20 fold
- differentially regulated genes (number) ([8]; 8 hours): 144 genes
- GFP fluorescence of Mtb in infected fibroblasts [9]: no fluorescence was detected
- GroEL in the culture filtrate (cell lysis) [10]: not observed
- Ag85 secretion [11]: fully blocked
- Activity [12]: 97%
- intracellular bacterial load [13]: greatly reduced the intracellular bacterial load
